Measurements: PubChem BioAssay (NCI)
Several values for one entry are separate records, joined by “and”; a condition that tells them apart may be missing. Equal entries are not always repeated.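 How tested: cells in 96-well plates exposed to compound for 48 hours at five concentrations. At the GI50, growth is halved. TGI is the concentration that stops growth completely.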

What was measured:
Experiment in all cases: inhibition of tumour cell growth, NCI panel, 48 h
[1] = system: UO-31 renal
[2] = system: SK-MEL-5 melanoma
[3] = system: BT-549 breast
[4] = system: A549 NSCLC
[5] = system: SK-MEL-2 melanoma
[6] = system: RPMI-8226 leukemia
[7] = system: A498 renal
[8] = system: OVCAR-4 ovarian
[9] = system: SNB-19 CNS
[10] = system: OVCAR-3 ovarian

| Structure (SMILES) | GI50 [1] [µM] | TGI [1] [µM] | GI50 [2] | TGI [2] [µM] | GI50 [3] [µM] | TGI [3] [µM] | GI50 [4] | TGI [4] [µM] | GI50 [5] [µM] | TGI [5] [µM] | GI50 [6] | TGI [6] [µM] | GI50 [7] | TGI [7] [µM] | GI50 [8] [µM] | TGI [8] [µM] | GI50 [9] [µM] | TGI [9] [µM] | GI50 [10] [µM] | TGI [10] [µM] |
| --- | --- | --- | --- | --- | --- | --- | --- | --- | --- | --- | --- | --- | --- | --- | --- | --- | --- | --- | --- | --- |
| Cn1ncc(-c2ccc3c(=O)[nH]nc(CN)c3c2)c1-c1c(F)cc2ccccc2c1C#N | 7.62 | 20.6 | 11 µM | 22.9 | 7.15 | 20.2 | 5.14 µM | 18.3 | 4.63 | 16.3 | 4.78 µM | 27.4 | 11.7 µM | 23.9 | 7.67 | 25.2 | 9.44 | 24.1 | 6.53 | 19.5 |
| CC[C@H](NC(=O)[C@H](CS(=O)(=O)CC1CC1)N[C@@H](c1ccc(F)cc1)C(F)(F)F)C(=O)C(=O)NC1CC1 | > 100 | > 100 | > 100 µM | > 100 | > 100 | > 100 | > 100 µM | > 100 | > 100 | > 100 | > 100 µM | > 100 | > 100 µM | > 100 | 82.9 | > 100 | > 100 | > 100 | > 100 | > 100 |
| Cc1c(C(=O)O[C@H]2[C@@H]3[C@H](C)CC[C@H]3[C@]3(C)O[C@@]2(C2CCCCC2)C[C@H]3OC(=O)CO)ccc2ccccc12 | 0.408 | 7.96 | 7.28 µM | 13.8 | 5.28 | 12.7 | 7.11 µM | 13.7 | 9.19 | 16.7 | 8.89 µM | 20.6 | 0.0173 µM | 0.144 | 7.6 | 14.3 | 8.56 | 15.6 | 7.57 | 14.4 |
| N#Cc1c2c(c(-c3cccs3)n(C3OC(CO)C(O)C(O)C3O)c1=S)CCc1ccccc1-2 (centres undefined) |  | > 100 | 6.47 µM and 28.4 µM | > 100 |  | > 100 | 20.9 µM and > 85.1 µM | > 100 |  | > 100 | 9.27 µM and > 23.7 µM | > 100 | 5.6 µM and 15.7 µM | > 100 |  | > 100 |  | > 100 |  | > 100 |
| CN1CCN(CCOc2ccc(-c3cnc4c(-c5ccc(F)cc5)cnn4c3)cc2)CC1 | 1.31 | 2.93 | 1.64 µM | 3.04 | 2.68 | 9.44 | 1.71 µM | 3.45 | 2.09 | 4.31 | 1.67 µM | 4.67 | 1.64 µM | 4.89 | 1.43 | 3.61 | 1.66 | 3.39 | 1.68 | 3.35 |
| N=C(N)SCCc1ccccn1 |  | > 100 |  | > 100 |  | > 100 |  | > 100 |  | > 100 |  | > 100 | 37.8 µM and > 100 µM | > 100 |  | > 100 |  | > 100 |  | > 100 |
| CCCn1c(N)c(C(=O)CNc2ccc(I)cc2)c(=O)[nH]c1=O |  | > 100 | 0.861 µM | > 100 | > 64.4 | > 100 | 2.1 µM | > 100 | > 100 | > 100 | 0.51 µM | > 100 | 27.5 µM | > 100 | > 100 | > 100 | 2.02 | > 59.5 | > 48.4 | > 100 |
| CCCCOc1ccc(/C=N/Nc2cc(C)nc3ccc(Cl)cc23)cc1 | 1.56 | 2.93 | 1.61 µM | 2.97 | 1.76 | 3.43 | 1.86 µM | 3.44 | 1.85 | 3.43 | 1.92 µM | 4.53 | 1.52 µM | 2.93 | 1.56 | 3 | 1.81 | 3.3 | 2.03 | 3.78 |
| COc1ccc(NC(=O)/C=C(C)/C=C/C=C(C)\C=C\C2=C(C)CCCC2(C)C)cc1 | > 100 | > 100 | 40.9 µM | > 100 | > 100 | > 100 | 87.9 µM | > 100 | 72.4 | > 100 | 1.71 µM | 64.4 | > 100 µM | > 100 | 34.8 | > 100 | > 100 | > 100 | 70.4 | > 100 |
| Cc1ccc2c(c1)C(=O)c1c-2n(CCCN=[N+]=[N-])c(=O)c2cc([N+](=O)[O-])ccc12 | 69 | > 100 | 97.6 µM | > 100 | > 100 | > 100 | 97.8 µM | > 100 | > 100 | > 100 | 21.3 µM | > 100 | > 100 µM | > 100 | 14 | 74.2 | > 100 | > 100 | > 100 | > 100 |
| NS(=O)(=O)c1ccc(NC(=O)Nc2ccccc2F)cc1 |  | > 100 |  | > 100 |  | > 100 |  | > 100 |  | > 100 |  | > 100 |  | > 100 |  | > 100 |  | > 100 |  | > 100 |
| Oc1ccc(Cl)cc1-c1cc(-c2ccc(F)cc2)n[nH]1 | 1.21 | 3.78 | 1.93 µM | 5.55 | 3.59 | 16.6 | 2.11 µM | 7.2 | 4.11 | 19.3 | 1.36 µM | 4.58 | 2.21 µM | 6.85 | 0.593 | > 100 | 2.27 | 8.27 | 1.39 | 3.53 |
| COc1c(N2CCN(Cn3c(O)c(N=NC(=O)c4ccncc4)c4cc(F)ccc43)C(C)C2)c(F)cc2c(=O)c(C(=O)O)cn(C3CC3)c12 (centres undefined) | > 50 | > 50 | 16.6 µM | > 50 | 37.5 | > 50 | > 50 µM | > 50 | > 50 | > 50 | 15.1 µM | 47.2 | 13.3 µM | > 50 | > 50 | > 50 | 32.5 | > 50 | 10.5 | 23.8 |
| C1CC[N-]CC1.CC(=N\O)/C(C)=N/O.CC(=N\O)/C(C)=N/O.[CH2-]CCN1CCOCC1.[Co+2] | > 100 | > 100 | > 100 µM | > 100 | > 100 | > 100 | > 100 µM | > 100 | > 100 | > 100 | > 100 µM | > 100 | > 100 µM | > 100 | > 100 | > 100 | > 100 | > 100 | > 100 | > 100 |
| COc1cc([C@@H]2c3cc4c(cc3C(OC3O[C@@H]5COC(C)O[C@H]5[C@H](O)[C@H]3O)C3COC(=O)[C@@H]32)OCO4)cc(OC)c1O (some centres undefined) | 3 | 31.6 | 0.861 µM | 7.96 | 1.66 | > 29.2 | 0.363 µM | > 39.1 | 7.37 | 31.9 | 0.666 µM | 7.83 | 0.605 µM | 14 | 14.4 | > 50 | 0.836 | > 47.9 | 4.8 | > 28 |
